Here are results for seven molecules from ChEMBL document CHEMBL1147123, “Lipoxygenase inhibitory constituents of the fruits of noni (Morinda citrifolia) collected in Tahiti” (J Nat Prod, 2007).

Assay [1] deals with T1, Polyunsaturated fatty acid 5-lipoxygenase (Homo sapiens, UniProt P09917).
T1 sequence (P09917 whole entry): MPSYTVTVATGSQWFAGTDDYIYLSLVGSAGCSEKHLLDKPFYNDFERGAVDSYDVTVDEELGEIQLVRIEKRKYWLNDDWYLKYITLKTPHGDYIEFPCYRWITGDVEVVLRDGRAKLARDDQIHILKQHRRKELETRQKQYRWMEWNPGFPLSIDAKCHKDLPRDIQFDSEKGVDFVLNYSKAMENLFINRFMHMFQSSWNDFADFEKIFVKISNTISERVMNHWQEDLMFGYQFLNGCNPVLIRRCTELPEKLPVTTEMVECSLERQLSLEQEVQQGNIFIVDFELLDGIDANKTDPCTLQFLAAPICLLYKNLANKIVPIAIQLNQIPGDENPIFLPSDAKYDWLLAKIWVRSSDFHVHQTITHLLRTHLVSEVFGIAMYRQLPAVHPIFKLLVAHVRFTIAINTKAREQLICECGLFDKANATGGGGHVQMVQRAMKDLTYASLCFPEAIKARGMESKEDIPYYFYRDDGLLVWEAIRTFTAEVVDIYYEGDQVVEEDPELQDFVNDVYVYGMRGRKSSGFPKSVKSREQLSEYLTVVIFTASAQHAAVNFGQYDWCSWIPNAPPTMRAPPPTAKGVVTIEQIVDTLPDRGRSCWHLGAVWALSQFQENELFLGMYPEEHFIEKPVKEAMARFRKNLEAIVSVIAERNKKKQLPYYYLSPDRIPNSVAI
The assay can be described thus: Inhibition of 5LOX in human PBMC by EIA assay.

In assay [2] the target is T2, Polyunsaturated fatty acid lipoxygenase ALOX15 (Oryctolagus cuniculus, UniProt P12530).
T2 sequence (P12530 whole entry): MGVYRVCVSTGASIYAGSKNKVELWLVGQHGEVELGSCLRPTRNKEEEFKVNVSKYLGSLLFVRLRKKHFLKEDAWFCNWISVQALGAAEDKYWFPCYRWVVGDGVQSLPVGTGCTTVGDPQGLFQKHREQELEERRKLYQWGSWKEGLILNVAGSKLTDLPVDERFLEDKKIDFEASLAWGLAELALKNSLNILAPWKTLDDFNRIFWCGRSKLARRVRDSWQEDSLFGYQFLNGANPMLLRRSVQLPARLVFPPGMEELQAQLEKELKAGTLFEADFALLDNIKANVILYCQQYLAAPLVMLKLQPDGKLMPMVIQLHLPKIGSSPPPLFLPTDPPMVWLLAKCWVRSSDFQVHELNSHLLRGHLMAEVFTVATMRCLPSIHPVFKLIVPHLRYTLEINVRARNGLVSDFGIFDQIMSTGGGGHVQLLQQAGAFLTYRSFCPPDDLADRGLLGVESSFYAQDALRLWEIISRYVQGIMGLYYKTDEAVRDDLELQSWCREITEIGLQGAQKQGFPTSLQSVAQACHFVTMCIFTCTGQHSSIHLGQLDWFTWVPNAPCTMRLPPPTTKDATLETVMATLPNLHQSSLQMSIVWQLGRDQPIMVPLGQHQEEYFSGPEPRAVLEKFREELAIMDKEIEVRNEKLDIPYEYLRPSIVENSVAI
The experiment in a line: Inhibition of 15LOX in rabbit reticulocytes by spectrophotometric assay.

Assay [3] deals with T3, Prostaglandin G/H synthase 2 (Homo sapiens, UniProt P35354).
T3 sequence (P35354 whole entry): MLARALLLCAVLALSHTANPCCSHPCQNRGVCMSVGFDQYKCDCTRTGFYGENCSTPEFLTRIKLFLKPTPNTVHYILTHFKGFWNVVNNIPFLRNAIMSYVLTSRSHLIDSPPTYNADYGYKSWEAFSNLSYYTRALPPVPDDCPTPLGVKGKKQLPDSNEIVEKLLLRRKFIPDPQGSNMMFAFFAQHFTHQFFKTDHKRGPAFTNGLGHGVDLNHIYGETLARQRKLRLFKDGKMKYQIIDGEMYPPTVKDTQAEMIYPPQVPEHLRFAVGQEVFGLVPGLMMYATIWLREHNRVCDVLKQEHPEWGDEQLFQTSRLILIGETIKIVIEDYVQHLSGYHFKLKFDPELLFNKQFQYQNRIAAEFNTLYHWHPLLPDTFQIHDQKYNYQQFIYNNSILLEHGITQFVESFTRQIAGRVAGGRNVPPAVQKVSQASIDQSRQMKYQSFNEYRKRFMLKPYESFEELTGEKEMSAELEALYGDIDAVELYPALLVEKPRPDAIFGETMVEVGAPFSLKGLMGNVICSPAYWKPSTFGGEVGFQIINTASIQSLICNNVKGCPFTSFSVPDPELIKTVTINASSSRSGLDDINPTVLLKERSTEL
The assay can be described thus: Inhibition of human recombinant COX2 expressed in insect Sf21 cells by EIA assay.

A value given as a limit tells only on which side of the number the result lay.

On to `O=C1O[C@H](c2ccc(O)c(O)c2)[C@H]2CO[C@H](c3ccc(O)c(O)c3)[C@@H]12`, for which the IC50 in assay [1] worked out at 5.6 µM; in assay [2], 0.52 µM; in assay [3], 90.2 µM.
Take `Oc1ccc([C@@H]2OC[C@@H]3[C@H]2CO[C@H]3c2ccc(O)c(O)c2)cc1O`: the results for the half-inhibitory concentration (IC50) in assay [1], in assay [2] and in assay [3] were 5.9 µM, 0.52 µM and over 100 µM, respectively.
For `OC[C@@H]1[C@@H]([C@H](O)c2ccc(O)c(O)c2)CO[C@@H]1c1ccc(O)c(O)c1`, in that order: 9.2 µM, 0.76 µM and 73.9 µM.
As for `COc1cc([C@@H]2OC[C@H]3[C@@H]2CO[C@H]3c2ccc(O)c(OC)c2)ccc1O` [(-)-PINORESINOL], the midpoint of inhibition in assay [1], the IC50, lay at 13.8 µM.
Consider `COc1cc2oc(=O)ccc2cc1O` [ISOSCOPOLETIN], for which the IC50 in assay [1] and in assay [3] was over 100 µM throughout.
On to `O=c1c(O)c(-c2ccc(O)cc2)oc2cc(O)cc(O)c12` [KAEMPFEROL], for which the IC50 in assay [3] was over 100 µM.
In the case of `COc1cc2ccc(=O)oc2cc1O` [SCOPOLETIN], the IC50 in assay [1] and in assay [3] was over 100 µM each time.

One may read the IC50 as the concentration needed to halve the response being measured.
